Test [1] deals with S. aureus.
Test [2] has as its system S. aureus. As to the kind of experiment: microbe, parasite or virus in culture. To be noted: Staphylococcus aureus, Erythrocyte, in Oryctolagus cuniculus.
In test [3] the test system is S. aureus. The class given is cell-based.
The test system of another test is RNAIII. The class given is cell-based, S. aureus.
Test [4] relates to S. aureus. As to the kind of experiment: Mouse model, Staph mixed with drug prior to IP injection. The settings on record: mixed with Staph prior to IP injection. The test is classed as in vivo, mice. The protocol:
(§1) The assay was carried out by injecting a fixed amount of a S. aureus culture, typically containing from about 5×10^9 cells from an early exponential growth stage culture, by intraperitoneal (IP) injection into mice, based on the method described by Thakker et al., 1998.
In one study, the S. aureus was mixed with VIF-1 or FTB, prior to IP injection.

Test [5] relates to S. aureus. Briefly: Mouse model, Staph injected IP 20 min prior to drug injection (IP). The settings on record: 20 min after Staph. The test is classed as in vivo, mice. The protocol:
as §1
In another approach, S. aureus was injected IP 20 minutes prior to IP injection of VIF-1 or FTB.
The commonly used anti-Staphylococcal antibiotics, methicillin and vancomycin, were tested in this model.

[6] abbreviates: read-out: IC50 (relative activity), text b100/b101, assay not named, values match the α-hemolysin column of Table 4.
Setting [7] is: read-out: Inhibition of α-Hemolysin production, Table 4, (n) in cell = number of determinations.

SMILES strings stand for the structures. Values after ≈ are worked out from the molar mass of the structure shown. Where two headings read alike, the source gives them in different places.

For `O=C(O)CC(NC(=O)OCC1c2ccccc2-c2ccccc21)c1ccc(Br)cc1` (racemic) [(R,S)-Fmoc-3-amino-3-(4-bromophenyl)-propionic acid], the “IC50 (relative activity)” value in the test with S. aureus [1] was found to be 1.0 µg. Still for that read-out and setting: next, `O=C(O)[C@H]1[C@H](c2ccccc2)CN1C(=O)OCC1c2ccccc2-c2ccccc21` (racemic) [Reference #104, Racemic Fmoc-trans-3-phenyl-azetidine-2-carboxylic acid]: 3.9 µg.

Regarding `O=C(O)CC(NC(=O)OCC1c2ccccc2-c2ccccc21)c1ccc(Br)cc1` (racemic) [Reference #127, (R,S)-Fmoc-3-amino-3-(4-bromophenyl)-propionic acid], the “Inhibition of α-Hemolysin production” value in the test with S. aureus [1] is reported as 1.4 (3) μg/ml. For `O=C(O)[C@@H]1CC[C@H](c2ccccc2)N1C(=O)OCC1c2ccccc2-c2ccccc21` [(2S,5R)-Fmoc-5-phenyl-pyrrolidine-2-carboxylic acid], the “IC50 (relative activity)” value in the test with S. aureus [1] stood at 1.0 µg. Consider `O=C(O)CC[C@H](Cc1ccccc1)NC(=O)OCC1c2ccccc2-c2ccccc21` [(R)-Fmoc-4-amino-5-phenyl-pentanoic acid], for which the “IC50 (relative activity)” value with S. aureus [1] amounted to 1.7 µg. On to `O=C(NC1(C(=O)O)CCCCC1)OCC1c2ccccc2-c2ccccc21` [Fmoc-1-amino-1-cyclohexane carboxylic acid], for which the “IC50 (relative activity)” value in the test with S. aureus [1] is 0.9 µg. `O=C(N[C@@H](Cc1ccc2ccccc2c1)C(=O)O)OCC1c2ccccc2-c2ccccc21` [Fmoc-3-(2-naphthyl)alanine]: in the test with S. aureus [2] (setting [6]), the IC50 is 4.2 µg/mL (≈ 9.6 µM). In the case of `CC(C)(C)OC(=O)n1cc(C[C@@H](NC(=O)OCC2c3ccccc3-c3ccccc32)C(=O)O)c2ccccc21` [Fmoc-D-Trp(Boc)-OH], in the test on S. aureus [1], the “IC50 (relative activity)” value is 1.0 µg. In the case of `O=C(N[C@@H](C(=O)O)c1ccccc1)OCC1c2ccccc2-c2ccccc21` [Fmoc-D-phenylglycine], in the test with S. aureus [2] (setting [6]), the IC50 worked out at 5.5 µg/mL (≈ 14.7 µM).

With `C[C@H](NC(=O)OCC1c2ccccc2-c2ccccc21)C(=O)O` [Fmoc-L-Ala-OH], the “IC50 (relative activity)” value in the test with S. aureus [1] was 6.5 µg. Take `O=C(N[C@@H](Cc1ccccc1)C(=O)O)OCC1c2ccccc2-c2ccccc21` [Fmoc-L-Phe-OH]: the “IC50 (relative activity)” value with S. aureus [1] amounted to 1.3 µg. On the same count and under the same terms, then `CC(C)(C)OC(=O)n1cc(C[C@H](NC(=O)OCC2c3ccccc3-c3ccccc32)C(=O)O)c2ccccc21` [Fmoc-L-Trp(Boc)-OH], with 1.2 µg; and `O=C(N[C@@H](Cc1c[nH]c2ccccc12)C(=O)O)OCC1c2ccccc2-c2ccccc21` [Fmoc-L-Trp-OH], with 9 µg.

In the case of `CC(C)[C@H](NC(=O)OCC1c2ccccc2-c2ccccc21)C(=O)O` [Fmoc-L-Val-OH], the “IC50 (relative activity)” value with S. aureus [1] amounted to 4.2 µg. As to `O=C(O)[C@@H]1CCN1C(=O)OCC1c2ccccc2-c2ccccc21` [Fmoc-L-azetidine-2-carboxylic acid], in the test with S. aureus [1], the “IC50 (relative activity)” value amounted to 12 µg. With `O=C(N[C@H](C(=O)O)c1ccccc1)OCC1c2ccccc2-c2ccccc21` [Fmoc-L-phenylglycine], the IC50 with S. aureus [2] (setting [6]) came out at 5 µg/mL (≈ 13.4 µM). As for `O=C(N[C@@H](CC1CCCCC1)C(=O)O)OCC1c2ccccc2-c2ccccc21` [Fmoc-beta-cyclohexyl-L-alanine], the IC50 in the test with S. aureus [2] (setting [6]) was found to be 4 µg/mL (≈ 10.2 µM). As to `O=C(O)[C@H]1Cc2c([nH]c3ccccc23)CN1C(=O)OCC1c2ccccc2-c2ccccc21` [Reference #18, Fmoc-D-1,2,3,4-tetrahydronorharman-3-carboxylic acid], in the test with S. aureus [1], the “Inhibition of α-Hemolysin production” value is 2.0 (5) μg/ml. Regarding `O=C(N[C@@H](Cc1cn(C(c2ccccc2)(c2ccccc2)c2ccccc2)cn1)C(=O)O)OCC1c2ccccc2-c2ccccc21` [Reference #29, Fmoc-L-His(Trt)-OH], the “Inhibition of TSST-1” value with S. aureus [3] came out at 4.0 µg/mL. For the same compound, the “Inhibition of α-Hemolysin production” value with S. aureus [1] is on record as 2.7 (3) μg/ml. In addition, the “Inhibition of RNA III activation” value with RNAIII is on record as 3.7 (3) μg/ml. With `O=C(N[C@@H](Cc1ccccc1)C(=O)O)OCC1c2ccccc2-c2ccccc21` [Reference #32, Fmoc-L-Phe-OH], the “Inhibition of α-Hemolysin production” value in the test on S. aureus [1] was found to be 1.3 µg/mL. Besides, the “Inhibition of RNA III activation” value in the test on RNAIII is above 2.5 µg/mL. `O=C(N[C@@H](Cc1c[nH]c2ccccc12)C(=O)O)OCC1c2ccccc2-c2ccccc21` [Reference #34, Fmoc-L-Trp-OH]: the “Inhibition of α-Hemolysin production” value in the test on S. aureus [1] was determined as 9.0 µg/mL. Moreover, the “Inhibition of RNA III activation” value in the test on RNAIII was above 2.5 µg/mL. For the compound `CC(C)[C@H](NC(=O)OCC1c2ccccc2-c2ccccc21)C(=O)O` [Reference #38, Fmoc-L-Val-OH], the “Inhibition of α-Hemolysin production” value in the test with S. aureus [1] amounted to 1.5 µg/mL. Moreover, the “Inhibition of RNA III activation” value with RNAIII was above 2.5 µg/mL. With `O=C(N[C@@H](Cc1cnc[nH]1)C(=O)O)OCC1c2ccccc2-c2ccccc21` [Reference #42, Fmoc-L-His], the “Inhibition of α-Hemolysin production” value in the test on S. aureus [1] turned out to be 47 µg/mL.

For `CC(C)(C)OC(=O)n1cnc(C[C@H](NC(=O)OCC2c3ccccc3-c3ccccc32)C(=O)O)c1` [Reference #43, Fmoc-L-His(Boc)-OH], in the test with S. aureus [1], the “Inhibition of α-Hemolysin production” value is above 50 µg/mL.

As to `CC(C)(C)OC(=O)n1cc(C[C@H](N)C(=O)O)c2ccccc21` [Reference #45, H-L-Trp(Boc)-OH], in the test with S. aureus [1], the “Inhibition of α-Hemolysin production” value was above 50 µg/mL. In addition, the “Inhibition of RNA III activation” value in the test with RNAIII was above 10.0 µg/mL. Turning to `N[C@@H](Cc1c[nH]c2ccccc12)C(=O)O` [Reference #46, H-L-Trp-OH], the “Inhibition of TSST-1” value with S. aureus [3] is above 10.0 µg/mL. In addition, the “Inhibition of RNA III activation” value with RNAIII was >10.0 (3) μg/ml. On to `C[C@H](NC(=O)OCC1c2ccccc2-c2ccccc21)C(=O)O` [Reference #52, Fmoc-L-Ala-OH], for which the “Inhibition of α-Hemolysin production” value in the test on S. aureus [1] stood at 6.5 µg/mL. As for `CC(C)C[C@H](NC(=O)OCC1c2ccccc2-c2ccccc21)C(=O)O` [Reference #67, Fmoc-L-Leu-OH], in the test on S. aureus [1], the “Inhibition of α-Hemolysin production” value is on record as 2.1 (4) μg/ml. Regarding `O=C(NCCCC[C@H](NC(=O)OCC1c2ccccc2-c2ccccc21)C(=O)O)OCc1ccccc1` [Reference #69, Fmoc-L-Lys(Z)-OH], the “Inhibition of α-Hemolysin production” value in the test on S. aureus [1] is 2.8 (4) μg/ml. The “Inhibition of RNA III activation” value in the test on RNAIII was 4.7 (3) μg/ml.

In the case of `O=C(N[C@@H](Cc1ccc(Br)cc1)C(=O)O)OCC1c2ccccc2-c2ccccc21` [Reference #73, Fmoc-4-bromo-L-phenylalanine], the IC50 with S. aureus [2] (setting [7]) was found to be 1.7 µg/mL (≈ 3.65 µM). For `Cc1ccc(C[C@H](NC(=O)OCC2c3ccccc3-c3ccccc32)C(=O)O)cc1` [Reference #74, Fmoc-4-methyl-L-phenylalanine], the IC50 in the test on S. aureus [2] (setting [7]) was determined as 2.3 µg/mL (≈ 5.73 µM). Regarding `CC(C)(C)OC(=O)n1cc(C[C@@H](NC(=O)OCC2c3ccccc3-c3ccccc32)C(=O)O)c2ccccc21` [Reference #78, Fmoc-D-Trp(Boc)-OH], the “Inhibition of α-Hemolysin production” value in the test on S. aureus [1] was 1.3 (5) μg/ml.

`O=C(N[C@@H](CC1CCCCC1)C(=O)O)OCC1c2ccccc2-c2ccccc21` [Reference #82, Fmoc-beta-cyclohexyl-L-alanine]: the IC50 with S. aureus [2] (setting [7]) amounted to 4 µg/mL (≈ 10.2 µM). Turning to `O=C(N[C@@H](Cc1cccs1)C(=O)O)OCC1c2ccccc2-c2ccccc21` [Reference #83, Fmoc-beta-(2-thienyl)-L-alanine], the IC50 in the test on S. aureus [2] (setting [6]) and with S. aureus [2] (setting [7]) was 25 µg/mL (≈ 63.5 µM) throughout.

`O=C(N[C@@H](Cc1ccc(Cl)cc1)C(=O)O)OCC1c2ccccc2-c2ccccc21` [Reference #92, Fmoc-4-chloro-L-D-phenylalanine]: the “Inhibition of α-Hemolysin production” value in the test on S. aureus [1] is recorded as 1.6 (5) μg/ml. For the compound `O=C(O)[C@@H]1CCN1C(=O)OCC1c2ccccc2-c2ccccc21` [Reference #120, Fmoc-L-azetidine-2-carboxylic acid], the “Inhibition of α-Hemolysin production” value with S. aureus [1] is 12.0 µg/mL. Turning to `O=C(O)CC[C@H](Cc1ccccc1)NC(=O)OCC1c2ccccc2-c2ccccc21` [Reference #126, (R)-Fmoc-4-amino-5-phenyl-pentanoic acid], the “Inhibition of α-Hemolysin production” value with S. aureus [1] is 1.7 (4) μg/ml. Also, the “Inhibition of RNA III activation” value in the test with RNAIII is 9.0 (2) μg/ml. `N[C@@H](Cc1c[nH]c2ccccc12)C(=O)O` [Trp, reference compound]: the “% Survival at 24 hr.” value is recorded as 0% with S. aureus [4] (1 mg/kg) and 33% in the test on S. aureus [4] (5 mg/kg). Take `COc1cccc(OC)c1C(=O)N[C@@H]1C(=O)N2[C@@H]1SC(C)(C)[C@@H]2C(=O)O` [methicillin, reference compound]: the figures for the “% Survival at 24 hr.” value in the test on S. aureus [5] (1 mg/kg IP), in the test with S. aureus [5] (10 mg/kg IP) and in the test on S. aureus [5] (100 mg/kg IP) were 17%, 50% and 100%, respectively.

For `CN[C@H](CC(C)C)C(=O)N[C@H]1C(=O)N[C@@H](CC(N)=O)C(=O)N[C@H]2C(=O)N[C@H]3C(=O)N[C@H](C(=O)N[C@H](C(=O)O)c4cc(O)cc(O)c4-c4cc3ccc4O)[C@H](O)c3ccc(c(Cl)c3)Oc3cc2cc(c3O[C@@H]2O[C@H](CO)[C@@H](O)[C@H](O)[C@H]2O[C@H]2C[C@](C)(N)[C@H](O)[C@H](C)O2)Oc2ccc(cc2Cl)[C@H]1O` [vancomycin, reference compound], the “% Survival at 24 hr.” value in the test on S. aureus [5] (0.5 mg/kg IP) was determined as 17%; in the test on S. aureus [5] (5 mg/kg IP), 50%; in the test on S. aureus [5] (50 mg/kg IP) it was 100%.

(Values after US20030050248A1 (priority 2000, published 2003).)
